In patent US20220128542A1, “TREATMENT EFFICIENCY EVALUATION” (TX MEDIC AB, priority 2019, published 2022):

System: brain of rats subjected to severe traumatic brain injury (sTBI)
Experiment: Ingenuity pathway analysis of differentially regulated genes after sTBI (canonical pathways, diseases and molecular functions; Example 4)
Set-up: species or system rat
Description: Pathway analysis of the differentially regulated genes was carried out using the Ingenuity pathway analysis package. The analysis was performed with special reference to pathways and molecular processes and diseases associated with neurodegenerative disease, including dementia, Alzheimer's disease, ALS, TBI and stroke, and with scarring and fibrosis, including glaucoma and normal pressure hydrocephalus (NPH) after subarachnoid haemorrhage.

[1] = TBI + 5 mg/kg LMW-DS, 7 days after TBI
[2] = TBI + 15 mg/kg LMW-DS, 2 days after TBI
[3] = TBI + 15 mg/kg LMW-DS, 7 days after TBI, relative to control
[4] = TBI + 15 mg/kg LMW-DS, 7 days after TBI
[5] = TBI + 15 mg/kg repeat dose LMW-DS, 7 days after TBI
[6] = TBI + 15 mg/kg repeated dose LMW-DS, 7 days after TBI, relative to control
[7] = TBI + 15 mg/kg repeated dose LMW-DS, 7 days after TBI

sodium salt of dextran sulfate [LMW-DS]
Ingenuity canonical pathway: Acute Phase Response Signaling [1]: Activated
Ingenuity canonical pathway: Adrenomedullin signaling pathway [1]: Inhibited
Ingenuity canonical pathway: Cardiac Hypertrophy Signaling [1]: Activated
Ingenuity canonical pathway: Colorectal Cancer Metastasis Signaling [1]: Inhibited
Ingenuity canonical pathway: Dendritic Cell Maturation [1]: Activated
Ingenuity canonical pathway: ERK5 Signaling [1]: Inhibited
Ingenuity canonical pathway: ERK/MAPK Signaling [1]: Activated
Ingenuity canonical pathway: Endothelin-1 Signaling [1]: Activated
Ingenuity canonical pathway: Fcγ Receptor-mediated Phagocytosis in Macrophages and Monocytes [1]: Activated
Ingenuity canonical pathway: GNRH Signaling [1]: Activated
Ingenuity canonical pathway: HMGB1 Signaling [1]: Activated
Ingenuity canonical pathway: IL-1 Signaling [1]: Activated
Ingenuity canonical pathway: IL-6 Signaling [1]: Activated
Ingenuity canonical pathway: IL-8 Signaling [1]: Activated
Ingenuity canonical pathway: ILK Signaling [1]: Activated
Ingenuity canonical pathway: Leukocyte Extravasation Signaling [1]: Activated
Ingenuity canonical pathway: Neuroinflammation Signaling Pathway [1]: Activated
Ingenuity canonical pathway: Osteoarthritis Pathway [1]: Inhibited
Ingenuity canonical pathway: PI3K Signaling in B Lymphocytes [1]: Activated
Ingenuity canonical pathway: PKCO Signaling in T Lymphocytes [1]: Activated
Ingenuity canonical pathway: PPAR Signaling [1]: Inhibited
Ingenuity canonical pathway: Phospholipase C Signaling [1]: Activated
Ingenuity canonical pathway: Production of Nitric Oxide and Reactive Oxygen Species in Macrophages [1]: Activated
Ingenuity canonical pathway: Protein Kinase A Signaling [1]: Inhibited
Ingenuity canonical pathway: Role of NFAT in Regulation of the Immune Response [1]: Activated
Ingenuity canonical pathway: Signaling by Rho Family GTPases [1]: Activated
Ingenuity canonical pathway: Synaptic Long Term Depression [1]: Activated
Ingenuity canonical pathway: Wnt/β-catenin Signaling [1]: Inhibited
Ingenuity canonical pathway: cAMP-mediated signaling [1]: Inhibited
Ingenuity canonical pathway: mTOR Signaling [1]: Activated
Effect on diseases or functions annotation: Apoptosis [2]: Inhibited
Effect on diseases or functions annotation: Apoptosis of tumor cell lines [2]: Activated
Effect on diseases or functions annotation: Behavior [2]: Inhibited
Effect on diseases or functions annotation: Cell death [2]: Inhibited
Effect on diseases or functions annotation: Necrosis [2]: Inhibited
Effect on diseases or functions annotation: Quantity of blood cells [2]: Inhibited
Effect on diseases or functions annotation: Quantity of cells [2]: Inhibited
Effect on diseases or functions annotation: Quantity of lymphocytes [2]: Inhibited
z score, Ingenuity canonical pathway: Endothelin-1 Signaling [3]: 1
z score, Ingenuity canonical pathway: Phospholipase C Signaling [3]: 2
z score, Ingenuity canonical pathway: cAMP-mediated signaling [3]: 1
Diseases or functions annotation: Abdominal neoplasm [4]: Inhibited
Diseases or functions annotation: Apoptosis [4]: Inhibited
Diseases or functions annotation: Apoptosis of tumor cell lines [4]: Activated
Diseases or functions annotation: Cancer [4]: Activated
Diseases or functions annotation: Carcinoma [4]: Activated
Diseases or functions annotation: Cell death [4]: Inhibited
Diseases or functions annotation: Cell death of tumor cell lines [4]: Activated
Diseases or functions annotation: Cell movement of myeloid cells [4]: Activated
Diseases or functions annotation: Development of carcinoma [4]: Activated
Diseases or functions annotation: Development of connective tissue cells [4]: Activated
Diseases or functions annotation: Development of malignant tumor [4]: Inhibited
Diseases or functions annotation: Differentiation of bone cells [4]: Activated
Diseases or functions annotation: Epithelial neoplasm [4]: Activated
Diseases or functions annotation: Extracranial solid tumor [4]: Activated
Diseases or functions annotation: Frequency of tumor [4]: Inhibited
Diseases or functions annotation: Genitourinary tumor [4]: Activated
Diseases or functions annotation: Incidence of tumor [4]: Inhibited
Diseases or functions annotation: Leukocyte migration [4]: Activated
Diseases or functions annotation: Necrosis [4]: Activated
Diseases or functions annotation: Non-melanoma solid tumor [4]: Activated
Diseases or functions annotation: Quantity of cells [4]: Activated
Diseases or functions annotation: Solid tumor [4]: Activated
Diseases or functions annotation: Transcription [4]: Activated
Diseases or functions annotation: Transcription of RNA [4]: Activated
Diseases or functions annotation: Tumorigenesis of epithelial neoplasm [4]: Activated
Diseases or functions annotation: Tumorigenesis of tissue [4]: Activated
Ingenuity canonical pathway: Endothelin-1 Signaling [4]: Activated
Ingenuity canonical pathway: Phospholipase C Signaling [4]: Activated
Ingenuity canonical pathway: cAMP-mediated signaling [4]: Activated
Diseases or functions annotation: Abdominal cancer [5]: Inhibited
Diseases or functions annotation: Abdominal neoplasm [5]: Inhibited
Diseases or functions annotation: Adenocarcinoma [5]: Inhibited
Diseases or functions annotation: Branching of cells [5]: Activated
Diseases or functions annotation: Carcinoma [5]: Inhibited
Diseases or functions annotation: Cell movement [5]: Activated
Diseases or functions annotation: Cell-cell contact [5]: Activated
Diseases or functions annotation: Concentration of hormone [5]: Activated
Diseases or functions annotation: Concentration of lipid [5]: Inhibited
Diseases or functions annotation: Dendritic growth/branching [5]: Inhibited
Diseases or functions annotation: Development of connective tissue cells [5]: Inhibited
Diseases or functions annotation: Development of gap junctions [5]: Activated
Diseases or functions annotation: Development of neurons [5]: Activated
Diseases or functions annotation: Developmental process of synapse [5]: Activated
Diseases or functions annotation: Differentiation of bone cells [5]: Inhibited
Diseases or functions annotation: Differentiation of connective tissue cells [5]: Inhibited
Diseases or functions annotation: Digestive organ tumor [5]: Inhibited
Diseases or functions annotation: Digestive system cancer [5]: Inhibited
Diseases or functions annotation: Epithelial neoplasm [5]: Inhibited
Diseases or functions annotation: Extracranial solid tumor [5]: Activated
Diseases or functions annotation: Formation of cellular protrusions [5]: Activated
Diseases or functions annotation: Formation of intercellular junctions [5]: Activated
Diseases or functions annotation: Gastrointestinal tumor [5]: Inhibited
Diseases or functions annotation: Hematologic cancer [5]: Inhibited
Diseases or functions annotation: Hematopoietic neoplasm [5]: Inhibited
Diseases or functions annotation: Learning [5]: Activated
Diseases or functions annotation: Microtubule dynamics [5]: Activated
Diseases or functions annotation: Migration of cells [5]: Activated
Diseases or functions annotation: Morphogenesis of neurons [5]: Activated
Diseases or functions annotation: Neurotransmission [5]: Activated
Diseases or functions annotation: Non-hematological solid tumor [5]: Inhibited
Diseases or functions annotation: Non-melanoma solid tumor [5]: Inhibited
Diseases or functions annotation: Nonhematologic malignant neoplasm [5]: Inhibited
Diseases or functions annotation: Obesity [5]: Activated
Diseases or functions annotation: Organization of cytoplasm [5]: Activated
Diseases or functions annotation: Organization of cytoskeleton [5]: Activated
Diseases or functions annotation: Quantity of Ca^2+ [5]: Activated
Diseases or functions annotation: Quantity of carbohydrate [5]: Inhibited
Diseases or functions annotation: Quantity of cells [5]: Activated
Diseases or functions annotation: Seizure disorder [5]: Activated
Diseases or functions annotation: Size of body [5]: Activated
Diseases or functions annotation: Skin lesion [5]: Activated
Diseases or functions annotation: Transport of ion [5]: Activated
Diseases or functions annotation: Transport of metal [5]: Activated
Diseases or functions annotation: Transport of molecule [5]: Activated
Diseases or functions annotation: Tumorigenesis of tissue [5]: Inhibited
z score, Ingenuity canonical pathway: 3-phosphoinositide Degradation [6]: 2
z score, Ingenuity canonical pathway: Acute Phase Response Signaling [6]: −0.447
z score, Ingenuity canonical pathway: Adrenomedullin signaling pathway [6]: −0.378
z score, Ingenuity canonical pathway: B Cell Receptor Signaling [6]: −0.447
z score, Ingenuity canonical pathway: Ephrin Receptor Signaling [6]: 2.236
z score, Ingenuity canonical pathway: Fc Epsilon RI Signaling [6]: −1
z score, Ingenuity canonical pathway: G Beta Gamma Signaling [6]: 2.236
z score, Ingenuity canonical pathway: NF-κB Signaling [6]: 0.447
z score, Ingenuity canonical pathway: Opioid Signaling Pathway [6]: 0.816
z score, Ingenuity canonical pathway: Role of NFAT in Cardiac Hypertrophy [6]: 0.447
z score, Ingenuity canonical pathway: Role of NFAT in Regulation of the Immune Response [6]: 2.236
z score, Ingenuity canonical pathway: Signaling by Rho Family GTPases [6]: 1
z score, Ingenuity canonical pathway: Superpathway of Inositol Phosphate Compounds [6]: 2
z score, Ingenuity canonical pathway: Synaptic Long Term Depression [6]: 1.342
Ingenuity canonical pathway: 3-phosphoinositide Degradation [7]: Activated
Ingenuity canonical pathway: Acute Phase Response Signaling [7]: Inhibited
Ingenuity canonical pathway: Adrenomedullin signaling pathway [7]: Inhibited
Ingenuity canonical pathway: B Cell Receptor Signaling [7]: Inhibited
Ingenuity canonical pathway: Ephrin Receptor Signaling [7]: Activated
Ingenuity canonical pathway: Fc Epsilon RI Signaling [7]: Inhibited
Ingenuity canonical pathway: G Beta Gamma Signaling [7]: Activated
Ingenuity canonical pathway: NF-κB Signaling [7]: Activated
Ingenuity canonical pathway: Opioid Signaling Pathway [7]: Activated
Ingenuity canonical pathway: Role of NFAT in Cardiac Hypertrophy [7]: Activated
Ingenuity canonical pathway: Role of NFAT in Regulation of the Immune Response [7]: Activated
Ingenuity canonical pathway: Signaling by Rho Family GTPases [7]: Activated
Ingenuity canonical pathway: Superpathway of Inositol Phosphate Compounds [7]: Activated
Ingenuity canonical pathway: Synaptic Long Term Depression [7]: Activated
